Positions count from the first letter of the chain named.
What was measured:
Assay type in all cases: biochemical
[1] = target: T1, WT apoALAS2 (residues 54–587) (Homo sapiens, UniProt P22557); test: Inhibitor competition, apoenzyme reactivation by PLP with or without hemin; conditions: for Vmax / Km: PLP varied; for Km: 95% confidence interval in brackets
T1 construct: His6-SUMO (N, cleaved yes); made in house; host or cells: Escherichia coli BL21-Codon Plus (DE3)-RIL
T1 sequence (P22557 54-587): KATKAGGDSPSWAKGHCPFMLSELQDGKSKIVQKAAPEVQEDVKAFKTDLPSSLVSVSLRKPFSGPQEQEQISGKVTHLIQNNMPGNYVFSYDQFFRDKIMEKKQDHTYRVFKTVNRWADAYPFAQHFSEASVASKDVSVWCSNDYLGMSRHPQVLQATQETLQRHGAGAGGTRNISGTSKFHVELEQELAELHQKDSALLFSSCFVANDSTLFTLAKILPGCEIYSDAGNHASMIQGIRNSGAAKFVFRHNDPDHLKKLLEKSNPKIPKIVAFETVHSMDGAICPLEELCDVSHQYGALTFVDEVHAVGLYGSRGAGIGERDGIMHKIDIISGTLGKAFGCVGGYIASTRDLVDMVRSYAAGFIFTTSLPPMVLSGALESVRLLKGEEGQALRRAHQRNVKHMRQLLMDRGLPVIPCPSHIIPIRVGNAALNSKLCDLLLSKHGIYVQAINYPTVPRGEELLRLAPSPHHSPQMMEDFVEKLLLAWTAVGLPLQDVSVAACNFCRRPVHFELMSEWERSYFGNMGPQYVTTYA
Protocol: (§1) A discontinuous colorimetric activity assay adapted from Shoolingin-Jordan et al. and Bailey et al. was used to measure the enzyme activity ([48], [74]). The reaction was initiated by adding 100 nM purified enzyme to 50 mM potassium phosphate, pH 7.0, 10 mM MgCl2, 1 mM DTT, 100 mM glycine, and 300 μM succinyl-CoA (175 μl total). The reaction was incubated at 37 °C for 15 min and terminated with 100 μl of cold 10% trichloroacetic acid. The precipitated protein was removed by centrifugation for 5 min at 13,000g, and 240 μl of the supernatant was mixed with 240 μl of 1 M sodium acetate, pH 4.6. To derivatize ALA, 20 μl of acetylacetone was added to the mixture and boiled at 100 °C for 10 min. After the sample was cooled for 20 min, 100 μl aliquots were transferred into a clear 96-well plate in triplicate. An equal volume of Ehrlich’s reagent (p-Dimethylaminobenzaldehyde, DMAB) was added to each well, and the absorbance was monitored at 553 nm using a microplate reader (Thermo Fisher Scientific). The peak absorbance value was converted to molar ALA concentration using ε553 = 60,400 M^−1 cm^−1.
For inhibitor competition experiments, the apoenzymes were preincubated with hemin or PLP (0–100 μM) for 15 min at 25 °C in the dark before initiating the reaction. Next, either PLP or hemin (0–100 μM) was titrated into the reactions to measure enzyme activation after hemin inhibition or enzyme inhibition of the PLP-treated apoenzyme, respectively. For succinyl-CoA:hemin competition analyses, the WT holoenzyme was mixed with hemin (0, 25, 50, and 100 μM), followed by the addition of increasing succinyl-CoA concentrations (0, 25, 50, 100, 250, and 500 μM). All experiments were performed with a minimum of three biological replicates, each with three technical replicates. Data were fit using nonlinear regression to generate an agonist dose-response curve (EC50) or an inhibitor dose-response curve (IC50). Lineweaver-Burk analysis was performed using the resulting kinetic parameters (Vmax and KM) in GraphPad Prism 10.

[2] = target: T2, WT holoALAS2 (residues 54–587) (Homo sapiens, UniProt P22557); test: Colorimetric ALA release activity assay, hemin inhibition of holoenzyme; conditions: 0.1 μM–60 μM hemin titrated into holoALAS2, rate of ALA release
T2 construct: His6-SUMO (N, cleaved yes); made in house; host or cells: Escherichia coli BL21-Codon Plus (DE3)-RIL
T2 sequence (P22557 54-587): T1 sequence (P22557 54-587)
Protocol: as §1
(§2) Inhibition of enzyme activity was determined by titrating hemin (0.1 μM–60 μM) into the substrate mixture before initiating the reaction upon enzyme addition. Hemin was dissolved in 100% dimethyl sulfoxide (DMSO) (ε403 nm = 170,000 M^−1 cm^−1) and serially diluted in 100% DMSO to prepare stock solutions for each concentration. The final DMSO concentration in the reaction mixture was 2%. All experiments were performed with a minimum of three biological replicates, each with three technical replicates. Data were fitted using nonlinear regression to generate an inhibitor dose-response curve (IC50) or an agonist dose-response curve (EC50), and statistical significance was determined using a one-way ANOVA with GraphPad Prism 10.

[3] = target: T3, holoALAS2 Cys-mut (C70A/C555A/C558A) (Homo sapiens, UniProt P22557, C555A/C558A/C70A); test: as above; conditions: 0.1 μM–60 μM hemin titrated into holoenzyme
T3 construct: Site-directed mutagenesis was performed on the mature ALAS2 (residues 54–587) construct to generate truncations and cysteine mutants; His6-SUMO (N, cleaved yes); made in house; host or cells: Escherichia coli BL21-Codon Plus (DE3)-RIL
T3 sequence (P22557 54-587 C70A/C555A/C558A): T1 sequence (P22557 54-587) with C17A, C502A, C505A
Protocol: as §1, §2

Compound | Vmax ([1]; hemin 0 μM) | Km ([1]; hemin 0 μM) | Vmax ([1]; hemin 10 μM) | Km ([1]; hemin 10 μM) | Vmax ([1]; hemin 25 μM) | Km ([1]; hemin 25 μM) | Vmax ([1]; hemin 50 μM) | Km ([1]; hemin 50 μM) | Vmax ([1]; hemin 100 μM) | Km ([1]; hemin 100 μM) | activation constant (Ka) ([1]; WT apoALAS2, PLP titration in the absence of heme) | EC50 ([1]; WT apoALAS2, PLP titration in the presence of 50 μM hemin) | apoenzyme activity restored ([1]; WT apoenzyme preincubated with 50 μM heme, excess PLP) | IC50 [2] | IC50 [3] | mode of inhibition ([1]; WT apoenzyme, varied PLP, various heme concentrations up to 100-fold excess)
Cc1ncc(COP(=O)(O)O)c(C=O)c1O [PLP] | 110.84 [123.30, 100.65] nmol/min/mg | 0.86 µM | 91.16 [97.56, 85.54] nmol/min/mg | 3.36 µM | 58.17 [67.25, 51.28] nmol/min/mg | 4.78 µM | 45.96 [99.50, 29.88] nmol/min/mg | 11.9 µM | 27.29 [41.39, 20.36] nmol/min/mg | 9.82 µM | 0.72 ± 0.08 µM | 7 ± 1 µM | ~50% |  |  | 
ferric chloride heme [hemin] |  |  |  |  |  |  |  |  |  |  |  |  |  | 18.7 ± 0.5 µM | 24.8 ± 0.5 µM | mixed inhibitor
